These results are taken from ChEMBL document CHEMBL3867433, “Synthesis and antimicrobial activity of styryl/pyrrolyl/pyrazolyl sulfonylmethyl-1,3,4-oxadiazolyl amines and styryl/pyrrolyl/pyrazolyl sulfonylmethyl-1,3,4-thiadiazolyl amines” (2016).

Holding throughout (format): functional
In assay [1] the test system is Aspergillus niger. Kind of assay: Antifungal activity against Aspergillus niger assessed as inhibition of spore germination at 100 ug/well after 48 hrs by agar well diffusion method. To be noted: read-out: DIZ. Background: A growth-free zone around the sample is the usual read-out of agar diffusion tests.
Assay [2] in a line: Antifungal activity against Penicillium chrysogenum assessed as inhibition of spore germination at 12.5 ug/well after 48 hrs by agar well diffusion method.
The nature of assay [3]: Antifungal activity against Penicillium chrysogenum assessed as inhibition of spore germination at 100 ug/well after 48 hrs by agar well diffusion method.
In assay [4] the test system is Pseudomonas aeruginosa. Kind of assay: Antibacterial activity against Pseudomonas aeruginosa at 50 ug/well after 24 hrs by agar well diffusion method. The following applies: read-out: DIZ.
For assay [5], the system named is Aspergillus niger. Kind of assay: Antifungal activity against Aspergillus niger assessed as inhibition of spore germination at 50 ug/well after 48 hrs by agar well diffusion method. To be noted: read-out: DIZ.
Assay [6] deals with Bacillus subtilis. Kind of assay: Antibacterial activity against Bacillus subtilis at 100 ug/well after 24 hrs by agar well diffusion method. To be noted: read-out: DIZ.
Assay [7] can be described thus: Antifungal activity against Penicillium chrysogenum assessed as inhibition of spore germination at 50 ug/well after 48 hrs by agar well diffusion method.
The nature of assay [8]: Antifungal activity against Penicillium chrysogenum assessed as inhibition of spore germination at 25 ug/well after 48 hrs by agar well diffusion method.
The subject of assay [9] is Pseudomonas aeruginosa. Kind of assay: Antibacterial activity against Pseudomonas aeruginosa at 100 ug/well after 24 hrs by agar well diffusion method. The following applies: read-out: DIZ.
The subject of assay [10] is Klebsiella pneumoniae. Kind of assay: Antibacterial activity against Klebsiella pneumoniae at 100 ug/well after 24 hrs by agar well diffusion method. The following applies: read-out: DIZ.
In assay [11] the test system is Staphylococcus aureus. Kind of assay: Antibacterial activity against Staphylococcus aureus at 100 ug/well after 24 hrs by agar well diffusion method. The following applies: read-out: DIZ.
The test system of assay [12] is Bacillus subtilis. Kind of assay: Antibacterial activity against Bacillus subtilis at 12.5 ug/well after 24 hrs by agar well diffusion method. The following applies: read-out: DIZ.
Assay [13] deals with Staphylococcus aureus. Kind of assay: Antibacterial activity against Staphylococcus aureus at 50 ug/well after 24 hrs by agar well diffusion method. To be noted: read-out: DIZ.
The subject of assay [14] is Klebsiella pneumoniae. Kind of assay: Antibacterial activity against Klebsiella pneumoniae at 50 ug/well after 24 hrs by agar well diffusion method. The following applies: read-out: DIZ.
The subject of assay [15] is Pseudomonas aeruginosa. Kind of assay: Antibacterial activity against Pseudomonas aeruginosa at 12.5 ug/well after 24 hrs by agar well diffusion method. To be noted: read-out: DIZ.
Assay [16] relates to Klebsiella pneumoniae. Kind of assay: Antibacterial activity against Klebsiella pneumoniae at 25 ug/well after 24 hrs by agar well diffusion method. The following applies: read-out: DIZ.
Assay [17] has as its system Pseudomonas aeruginosa. Kind of assay: Antibacterial activity against Pseudomonas aeruginosa at 25 ug/well after 24 hrs by agar well diffusion method. The following applies: read-out: DIZ.
The subject of assay [18] is Aspergillus niger. Kind of assay: Antifungal activity against Aspergillus niger assessed as inhibition of spore germination at 25 ug/well after 48 hrs by agar well diffusion method. The following applies: read-out: DIZ.
In assay [19] the test system is Klebsiella pneumoniae. Kind of assay: Antibacterial activity against Klebsiella pneumoniae at 12.5 ug/well after 24 hrs by agar well diffusion method. To be noted: read-out: DIZ.
The subject of assay [20] is Bacillus subtilis. Kind of assay: Antibacterial activity against Bacillus subtilis at 25 ug/well after 24 hrs by agar well diffusion method. To be noted: read-out: DIZ.
Assay [21] relates to Bacillus subtilis. Kind of assay: Antibacterial activity against Bacillus subtilis at 50 ug/well after 24 hrs by agar well diffusion method. The following applies: read-out: DIZ.
Assay [22] has as its system Aspergillus niger. Kind of assay: Antifungal activity against Aspergillus niger assessed as inhibition of spore germination at 12.5 ug/well after 48 hrs by agar well diffusion method. To be noted: read-out: DIZ.
For assay [23], the system named is Staphylococcus aureus. Kind of assay: Antibacterial activity against Staphylococcus aureus at 12.5 ug/well after 24 hrs by agar well diffusion method. The following applies: read-out: DIZ.
For assay [24], the system named is Staphylococcus aureus. Kind of assay: Antibacterial activity against Staphylococcus aureus at 25 ug/well after 24 hrs by agar well diffusion method. The following applies: read-out: DIZ.

As to `Cc1ccc(-c2c[nH]cc2S(=O)(=O)Cc2nnc(N)o2)cc1`, the zone of inhibition at 100 µg/disc in the assay on Aspergillus niger [1] worked out at 9 mm; in the assay with Bacillus subtilis [6], 10 mm; in the assay with Pseudomonas aeruginosa [9] it was 11 mm; in the assay with Klebsiella pneumoniae [10] it was 12 mm; with Staphylococcus aureus [11], 10 mm. Besides, the inhibition zone (IZ) in assay [2] stood at 8 mm; in assay [3], 14 mm; in assay [7] it was 12 mm; in [8], 10 mm. The zone of inhibition at 50 µg/disc came to 10 mm in the assay on Pseudomonas aeruginosa [4] and 7 mm with Aspergillus niger [5].

Regarding `Cc1ccc(C2CNN=C2S(=O)(=O)Cc2nnc(N)s2)cc1` (stereo not drawn), the zone of inhibition at 100 µg/disc with Aspergillus niger [1] was found to be 8 mm. Besides, the inhibition zone (IZ) in [3] is 11 mm. For the same compound, the zone of inhibition at 50 µg/disc in the assay on Aspergillus niger [5] amounted to 4 mm.

Take `Nc1nnc(CS(=O)(=O)C2=NNCC2c2ccccc2)s1` (stereo not drawn): the zone of inhibition at 100 µg/disc in the assay on Aspergillus niger [1] is 9 mm. The inhibition zone (IZ) in assay [3] came to 12 mm. The zone of inhibition at 50 µg/disc in the assay with Aspergillus niger [5] stood at 7 mm.

In the case of `Nc1nnc(CS(=O)(=O)c2n[nH]cc2-c2ccccc2)o1`, the zone of inhibition at 100 µg/disc in the assay with Aspergillus niger [1] amounted to 13 mm; with Bacillus subtilis [6], 15 mm; with Pseudomonas aeruginosa [9], 17 mm; in the assay on Klebsiella pneumoniae [10] it was 16 mm; in the assay with Staphylococcus aureus [11], 14 mm. Further, the zone of inhibition at 12.5 µg/disc in the assay on Bacillus subtilis [12] was determined as 7 mm; in the assay with Pseudomonas aeruginosa [15], 11 mm; in the assay on Klebsiella pneumoniae [19], 10 mm. In addition, the zone of inhibition at 50 µg/disc in the assay on Staphylococcus aureus [13] came to 10 mm; with Klebsiella pneumoniae [14], 14 mm; in the assay on Pseudomonas aeruginosa [4], 15 mm; in the assay on Aspergillus niger [5] it was 11 mm; in the assay with Bacillus subtilis [21], 11 mm. Also, the figures for the inhibition zone (IZ) in assay [3], in [7] and in [8] were 16 mm, 14 mm and 12 mm, respectively. The zone of inhibition at 25 µg/disc in the assay on Klebsiella pneumoniae [16] turned out to be 12 mm; in the assay with Pseudomonas aeruginosa [17], 13 mm; with Aspergillus niger [18], 9 mm; in the assay with Bacillus subtilis [20], 9 mm.

`Cc1ccc(/C=C\S(=O)(=O)Cc2nnc(N)o2)cc1`: the zone of inhibition at 12.5 µg/disc in the assay on Aspergillus niger [22] is 8 mm; in the assay on Bacillus subtilis [12], 8 mm; in the assay on Pseudomonas aeruginosa [15], 12 mm; in the assay on Klebsiella pneumoniae [19], 11 mm. The zone of inhibition at 100 µg/disc in the assay on Aspergillus niger [1] came to 13 mm; in the assay on Bacillus subtilis [6], 14 mm; with Pseudomonas aeruginosa [9], 18 mm; in the assay with Klebsiella pneumoniae [10] it was 17 mm; in the assay on Staphylococcus aureus [11] it was 14 mm. Also, the inhibition zone (IZ) in assay [2] worked out at 10 mm; in assay [3], 16 mm; in assay [7], 14 mm; in assay [8], 12 mm. The zone of inhibition at 50 µg/disc in the assay on Staphylococcus aureus [13] turned out to be 12 mm; with Klebsiella pneumoniae [14], 15 mm; with Pseudomonas aeruginosa [4], 16 mm; in the assay with Aspergillus niger [5], 11 mm; in the assay on Bacillus subtilis [21], 11 mm. Also, the zone of inhibition at 25 µg/disc was 13 mm in the assay with Klebsiella pneumoniae [16], 14 mm in the assay on Pseudomonas aeruginosa [17], 10 mm in the assay on Aspergillus niger [18] and 9 mm in the assay with Bacillus subtilis [20].

With `Cc1ccc(-c2c[nH]nc2S(=O)(=O)Cc2nnc(N)o2)cc1`, the zone of inhibition at 100 µg/disc turned out to be 10 mm in the assay with Aspergillus niger [1]; 11 mm in the assay with Bacillus subtilis [6]; 14 mm in the assay with Pseudomonas aeruginosa [9]; 14 mm with Klebsiella pneumoniae [10]; 12 mm in the assay with Staphylococcus aureus [11]. Further, the zone of inhibition at 12.5 µg/disc in the assay on Bacillus subtilis [12] is 6 mm; in the assay on Pseudomonas aeruginosa [15], 9 mm. The zone of inhibition at 50 µg/disc in the assay on Klebsiella pneumoniae [14] was 12 mm; with Pseudomonas aeruginosa [4], 12 mm; in the assay with Aspergillus niger [5] it was 10 mm; in the assay on Bacillus subtilis [21], 9 mm. For the same compound, the figures for the inhibition zone (IZ) in assay [3] and in assay [7] were 14 mm and 11 mm, respectively. In addition, the zone of inhibition at 25 µg/disc in the assay with Pseudomonas aeruginosa [17] was found to be 10 mm; in the assay on Aspergillus niger [18], 8 mm; in the assay on Bacillus subtilis [20], 7 mm.

Take `Nc1nnc(CS(=O)(=O)c2c[nH]cc2-c2ccccc2)o1`: the zone of inhibition at 100 µg/disc with Aspergillus niger [1] amounted to 12 mm; with Bacillus subtilis [6], 12 mm; with Pseudomonas aeruginosa [9], 14 mm; in the assay with Klebsiella pneumoniae [10] it was 13 mm; in the assay with Staphylococcus aureus [11], 11 mm. In addition, the inhibition zone (IZ) was determined as 11 mm in assay [2], 16 mm in assay [3], 14 mm in assay [7] and 12 mm in assay [8]. For the same compound, the zone of inhibition at 50 µg/disc in the assay on Klebsiella pneumoniae [14] amounted to 11 mm; in the assay with Pseudomonas aeruginosa [4] it was 12 mm; in the assay on Aspergillus niger [5] it was 10 mm. Also, in the assay with Pseudomonas aeruginosa [15], the zone of inhibition at 12.5 µg/disc is 8 mm. Besides, the zone of inhibition at 25 µg/disc with Pseudomonas aeruginosa [17] stood at 10 mm; in the assay with Aspergillus niger [18] it was 8 mm.

In the case of `Nc1nnc(CS(=O)(=O)c2n[nH]cc2-c2ccc(Cl)cc2)o1`, the zone of inhibition at 12.5 µg/disc turned out to be 8 mm with Staphylococcus aureus [23], 8 mm with Bacillus subtilis [12], 12 mm with Pseudomonas aeruginosa [15] and 11 mm in the assay with Klebsiella pneumoniae [19]. Also, the zone of inhibition at 100 µg/disc stood at 13 mm in the assay with Aspergillus niger [1]; 13 mm in the assay with Bacillus subtilis [6]; 18 mm with Pseudomonas aeruginosa [9]; 17 mm with Klebsiella pneumoniae [10]; 15 mm in the assay on Staphylococcus aureus [11]. Besides, the inhibition zone (IZ) in [2] worked out at 12 mm; in [3], 17 mm; in [7], 15 mm; in assay [8], 13 mm. Further, the zone of inhibition at 50 µg/disc in the assay with Staphylococcus aureus [13] was 12 mm; with Klebsiella pneumoniae [14], 15 mm; in the assay on Pseudomonas aeruginosa [4], 16 mm; in the assay with Aspergillus niger [5], 11 mm; in the assay with Bacillus subtilis [21] it was 12 mm. The zone of inhibition at 25 µg/disc with Klebsiella pneumoniae [16] was 13 mm; in the assay with Pseudomonas aeruginosa [17] it was 14 mm; in the assay with Staphylococcus aureus [24] it was 10 mm; in the assay on Aspergillus niger [18], 9 mm; in the assay with Bacillus subtilis [20] it was 9 mm.

Consider `Nc1nnc(CS(=O)(=O)c2c[nH]cc2-c2ccc(Cl)cc2)o1`, for which the zone of inhibition at 12.5 µg/disc is 7 mm in the assay with Staphylococcus aureus [23], 9 mm with Pseudomonas aeruginosa [15] and 8 mm in the assay with Klebsiella pneumoniae [19]. Besides, the zone of inhibition at 100 µg/disc was 14 mm in the assay on Aspergillus niger [1]; 13 mm with Bacillus subtilis [6]; 15 mm in the assay with Pseudomonas aeruginosa [9]; 14 mm with Klebsiella pneumoniae [10]; 12 mm with Staphylococcus aureus [11]. The inhibition zone (IZ) in assay [2] came to 12 mm; in assay [3] it was 18 mm; in [7], 16 mm; in assay [8], 14 mm. Also, the zone of inhibition at 50 µg/disc was 9 mm with Staphylococcus aureus [13]; 12 mm in the assay with Klebsiella pneumoniae [14]; 13 mm in the assay on Pseudomonas aeruginosa [4]; 9 mm with Aspergillus niger [5]; 11 mm in the assay on Bacillus subtilis [21]. Moreover, the zone of inhibition at 25 µg/disc in the assay with Klebsiella pneumoniae [16] amounted to 10 mm; in the assay on Pseudomonas aeruginosa [17] it was 11 mm; in the assay with Staphylococcus aureus [24] it was 8 mm; with Aspergillus niger [18], 10 mm.

Regarding `Nc1nnc(CS(=O)(=O)C2=NNCC2c2ccc(Cl)cc2)s1` (stereo not drawn), the zone of inhibition at 100 µg/disc in the assay on Aspergillus niger [1] is 11 mm. For the same compound, the inhibition zone (IZ) worked out at 13 mm in [3] and 10 mm in assay [7]. The zone of inhibition at 50 µg/disc in the assay with Aspergillus niger [5] is 10 mm.
